Measured values from patent US20050256176A1, “Sulphonamide derivatives and their use as tace inhibitors” (priority 2002, published 2005).

Target: T1, proTNF-α convertase enzyme (TACE) (Homo sapiens, UniProt P78536)
T1 construct: a partially purified, isolated enzyme assay, the enzyme being obtained from the membranes of THP-1; endogenous in cells; host or cells: THP-1 cell membranes, partially purified as in Mohler et al. (1994) Nature 370:218-220
Test: Isolated enzyme assay, proTNF-α convertase (TACE), fluorescent peptide substrate
Assay type: biochemical
Settings: partially purified enzyme from membranes of THP-1; 26° C. for 4 hours; read-out: concentration giving 50% inhibition of TACE
Experimental: Recombinant human proMMP13 may be expressed and purified as described by Knauper et al. [V. Knauper et al., (1996) […] 271:1544-1550 (1996)]. […] Activity is determined by measuring the fluorescence at λex 328 nm and λem 393 nm. Percent inhibition is calculated as follows: % Inhibition is equal to the [Fluorescenceplus inhibitor−Fluorescencebackground] divided by the [Fluorescenceminus inhibitor−Fluorescencebackground].
The ability of the compounds to inhibit proTNF-α convertase enzyme (TACE) may be assessed using a partially purified, isolated enzyme assay, the enzyme being obtained from the membranes of THP-1 as described by K. M. Mohler et al., (1994) Nature 370:218-220. The purified enzyme activity and inhibition thereof is determined by incubating the partially purified enzyme in the presence or absence of test compounds using the substrate 4′,5′-Dimethoxy-fluoresceinyl Ser.Pro.Leu.Ala.Gln.Ala.Val.Arg.Ser.Ser.Ser.Arg.Cys(4-(3-succinimid-1-yl)-fluorescein)-NH2 in assay buffer (50 mM Tris HCl, pH 7.4 containing 0.1% (w/v) Triton X-100 and 2 mM CaCl2), at 26° C. for 4 hours. The amount of inhibition is determined as for MMP13 except λex 485 nm and λem 538 nm were used. […]

T1 sequence (P78536 215-824): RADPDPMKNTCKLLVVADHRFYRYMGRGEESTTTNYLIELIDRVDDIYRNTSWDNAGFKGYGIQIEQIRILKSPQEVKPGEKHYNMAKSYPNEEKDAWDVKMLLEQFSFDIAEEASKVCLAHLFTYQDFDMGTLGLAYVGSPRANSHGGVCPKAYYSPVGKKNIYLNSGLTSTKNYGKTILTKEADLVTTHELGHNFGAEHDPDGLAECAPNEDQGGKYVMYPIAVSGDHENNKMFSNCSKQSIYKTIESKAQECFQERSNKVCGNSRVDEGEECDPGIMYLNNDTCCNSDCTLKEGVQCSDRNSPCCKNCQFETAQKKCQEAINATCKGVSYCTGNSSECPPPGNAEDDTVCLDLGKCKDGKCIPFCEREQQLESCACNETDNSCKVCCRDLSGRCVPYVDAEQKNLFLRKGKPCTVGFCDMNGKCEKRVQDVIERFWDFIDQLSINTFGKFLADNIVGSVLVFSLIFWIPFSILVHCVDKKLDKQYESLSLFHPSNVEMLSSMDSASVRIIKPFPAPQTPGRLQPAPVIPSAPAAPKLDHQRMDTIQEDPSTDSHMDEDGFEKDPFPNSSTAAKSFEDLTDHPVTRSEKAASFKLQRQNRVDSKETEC

SMILES	IC50 [nM]
Cc1cc(COc2ccc(NS(=O)(=O)CC3(C)NC(=O)NC3=O)cc2)c2ccccc2n1 (centres unmarked) [Example 1A, 1-(4-methyl-2,5-dioxoimidazolidin-4-yl)-N-{4-[(2-methylquinolin-4-yl)methoxy]phenyl}methanesulphonamide]	71
CCC1(CS(=O)(=O)Nc2ccc(OCc3cc(C)nc4ccccc34)cc2)NC(=O)NC1=O (centres unmarked) [Example 2A, 1-(4-ethyl-2,5-dioxoimidazolidin-4-yl)-N-{4-[(2-methylquinolin-4-yl)methoxy]phenyl}methanesulphonamide]	37
